Experimental data: patent US20080269323A1, “USE OF 4-(NITROOXY)-BUTYL-(S)-2-(6-METHOXY-2-NAPHTHYL)-PROPANOATE FOR TREATING PAIN AND INFLAMMATION” (NICOX S.A., priority 2007, published 2008)

What was measured:
[1] = system: PGE2; test: Urinary PGE2 production levels; assay type: in vivo, rat; conditions: rats, oral, two weeks; naproxcinod 14.5 mg/kg, naproxen 10 mg/kg
[2] = Urine flow rate during water-load; assay type: in vivo, rat; conditions: water-load (90 min) compared to baseline; rats, oral, two weeks
Description: After obtaining a set of baseline images, hypotonic glucose-saline (0.25% NaCl, 0.5% glucose) at 1.5 ml/100 g body weight/hr was infused intravenously via the femoral catheter for 2 hours to induce the water-diuresis.

| SMILES | Urinary PGE2 production levels (in words) [1] | Increase in urine flow during water-load (in words) [2] |
| --- | --- | --- |
| COc1ccc2cc([C@H](C)C(=O)OCCCCO[N+](=O)[O-])ccc2c1 [Naproxcinod, 4-(Nitrooxy)-butyl-(S)-2-(6-methoxy-2-naphthyl)-propanoate] | reduced | substantially less increase |
| COc1ccc2cc([C@H](C)C(=O)O)ccc2c1 [Naproxen, naproxen] | reduced | substantially less increase |
